Experimental data from patent US6693081B2, “Bone stimulating factor” (Osteopharm Inc., priority 1995, dated 2004).
Entries after “also recorded” stand apart in the source; their conditions may differ.

Tests used:
[1] = test system: male Sprague-Dawley rats; assay: Bone mineral apposition rate in rats, second set of experiments (NAP-2V subsequences); format: in vivo, rat; settings: for Group arithmetic mean of bone apposition rate: about 25 nmol injected in right thigh, male Sprague-Dawley rats, N=3-4, control 1.08
Protocol: In a second set of experiments, twenty-four male Sprague-Dawley rats (Charles River Laboratory) were divided into six groups of four. Each of the first group, the control group, was injected in the right thigh with 200 μl of 0.1% acetic acid solution. The rats of the other groups were each injected in the right thigh with about 200 μl of a 0.1% acetic acid solution containing about 25 nmol of a chemically synthesized polypeptide as follows:
Immediately after injection of the polypeptide (control) solution, each rat was injected in the right gluteus maximus with 200 μl of a 1 M tetracycline hydrochloride (Sigma Chemical) solution. This dosage of tetracycline is about 16 mg per kg of animal body weight.
About 48 hours later, each rat was injected in the left gluteus maximus with the same dosage of tetracycline. Twenty-four hours later, the rats were sacrificed by CO2 narcosis and the right femur taken for bone mineral apposition rate determination. One rat died during the course of the experiments.
Immediately after dissection, a bone sample was fixed in 10% formaldehyde solution at pH 7.4. Later the same day, a 1:1 H2O-acetone solution was exchanged for the formaldehyde solution. This was exchanged twice the following day with acetone. This was exchanged the following day by a 1:1 acetone-Spurr's medium solution, which was exchanged later the same day with Spurr's medium. The following day each sample was embedded in a fresh change of Spurr's medium and cured at 60° C. for 24 hours, followed by curing at 80° C. for 24 hours.
Each cured block was cut into 400 μm thick sections using a Leitz saw microtome equipped with a diamond charged blade. The relatively thick sections were ground down between two ground glass plates pre-roughened with carborundum powder to a final thickness of about 10 μm, water being used as the grinding lubricant. The thin sections were dried and mounted unstained in Permount (Fisher).
Measurements were made using a Leitz scanning light microscope photometer MPV-CD magnifying the sections 16×, as described in international patent application No. PCT/CA94/00144.

[2] = test system: female Sprague-Dawley rats; assay: Dose dependence of bone mineral apposition rate in rats, fourth set of experiments; format: in vivo, rat; settings: N=4, control 1.320
Protocol: In a fourth set of experiments, dose dependence of the measured bone mineral apposition rate on the amount of polypeptide having SEQ ID NO:18 was evaluated. Twenty-eight female Sprague-Dawley rats (average weight, about 300 gm) were divided into seven groups of four. The rats were treated as described in the previous set of experiments except that the amount of test polypeptide varied as follows: 25, 50, 100, 200, 400 and 800 nmoles.

[3] = test system: female Sprague-Dawley rats; assay: Bone mineral apposition rate in rats, third set of experiments (protected polypeptides); format: in vivo, rat; settings: 100 nmoles; for Group arithmetic mean of bone apposition rate: female Sprague-Dawley rats, N=3, control 1.256; for Bone stimulatory activity (in words): rats
Protocol: The polypeptide having the sequence identified as SEQ ID NO:12 has two sites susceptible to cleavage by the peptidase plasmin, between the lysine-threonine and the lysine-asparagine residues, respectively. In a third set of experiments, nine female Sprague-Dawley rats (average weight, about 300 gm) were divided into three groups of three. Each of the first group, the control group, was injected with 400 μl of buffer solution, 50 mM sodium acetate adjusted to pH 4.5 followed immediately by 200 μl of a 1M tetracycline hydrochloride solution. The rats of the second group were each injected with 400 μl of buffer containing 100 nmoles of a chemically synthesized polypeptide having the sequence identified as SEQ ID NO:17 followed immediately by 200 μl of a 1 M tetracycline hydrochloride solution. The rats of the third group were each injected with 400 μl of buffer containing 100 nmoles of a chemically synthesized polypeptide having the sequence identified as SEQ ID NO:18 followed immediately by 200 μl of a 1M tetracycline hydrochloride solution.
After about 48 hours, a second dose of tetracycline hydrochloride was administered to each rat. After about another 24 hours, rats were sacrificed by carbon dioxide narcosis.
The right femur of each animal was taken and treated, as described above, and measurements made as described above.

[4] = test system: male Sprague-Dawley rats; assay: Bone mineral apposition rate in rats, first experiments (NAP-2, NAP-2V); format: in vivo, rat; settings: 25 nmol; for Bone stimulatory effect (in words): rats; for Group arithmetic mean of bone apposition rate: subcutaneous injection, male Sprague-Dawley rats, N=5, right femur lower metaphysis, control 0.99
Protocol: Experiments were conducted simultaneously on three groups of male Sprague-Dawley rats, there being five rats in each group. Each rat weighed between 250 and 350 g. Each rat of the first group was given, by subcutaneous injection into the left gluteus maximus region, 200 μl of a 1% aqueous acetic acid solution containing 25 nmol (about 191 μg) of NAP-2 (SEQ ID NO:1). Each rat of the second group was similarly given 200 μl of a 1% aqueous acetic acid solution containing 25 nmol (about 207 μg) of NAP-2V (SEQ ID NO:2). Each rat of the third group, the control group, was similarly given 200 μl of 1% acetic acid solution.
Immediately following administration of the test solution, 300 μl of an aqueous solution of tetracycline hydrochloride was administered intramuscularly into the right gluteus maximus, the concentration of tetracycline being sufficient to obtain a dosage of about 24 mg/kg of rat body weight. A second dose of tetracycline hydrochloride solution was administered about 48 hours after the first dose. The rats were sacrificed about 24 hours after administration of the second dose of tetracycline.
Sections of the lower metaphysis of the right femur were used for bone measuring the bone mineral apposition rate. Processing of the bone material for measurement has been described previously. See, for example, international patent application No. PCT/CA 94/00144 published under No. WO 94/20615 on Sep. 15, 1994.

[5] = test system: Saos-2; settings: Saos-2 osteoblastic osteosarcoma cell line; U.S. Pat. No. 5,304,542; cited from earlier work
[6] = test system: G-292; settings: G-292 osteoblastic osteosarcoma cell line; U.S. Pat. No. 5,304,542; cited from earlier work

NAP-2V-(11-26) (MCIKTTSQIHPKNIQS; OTHER INFORMATION: Description of Artificial Sequence: Chemically synthesized polypeptide) [SEQ ID NO: 14, Met Cys Ile Lys Thr Thr Ser Gln Ile His Pro Lys Asn Ile Gln Ser]
Group arithmetic mean of bone apposition rate [1]: 1.07 μm per day
Effect on observed bone (mineral) apposition rate (in words) ([1]; about 25 nmol, rats, listed as 14): do not appear to enhance bone growth
Effect on observed bone (mineral) apposition rate (in words) ([1]; about 25 nmol, rats, listed as NAP-2V-(11-26)): no effect

NAP-2V-(12-26) (CIKTTSGIHPKNIQS; OTHER INFORMATION: Description of Artificial Sequence: Chemically synthesized polypeptide) [SEQ ID NO: 15, Cys Ile Lys Thr Thr Ser Gly Ile His Pro Lys Asn Ile Gln Ser]
Group arithmetic mean of bone apposition rate [1]: 1.04 μm per day
Effect on observed bone (mineral) apposition rate (in words) ([1]; about 25 nmol, rats, listed as 15): do not appear to enhance bone growth
Effect on observed bone (mineral) apposition rate (in words) ([1]; about 25 nmol, rats, listed as NAP-2V-(12-26)): no effect

NAP-2V-(10-26) (CMCIKTTSGIHPKNIQS; OTHER INFORMATION: Description of Artificial Sequence: Chemically synthesized polypeptide) [SEQ ID NO: 13, Cys Met Cys Ile Lys Thr Thr Ser Gly Ile His Pro Lys Asn Ile Gln Ser]
Group arithmetic mean of bone apposition rate [1]: 1.18 μm per day
Effect on observed bone (mineral) apposition rate (in words) ([1]; about 25 nmol, rats): small increase

SEQ ID NO: 18: Protected NAP-2V-(15-22): Xaa Thr Ser Gly Ile His Pro Xaa; Xaa1 N-acetyl threonine, Xaa8 lysinamide (Ac-TTSGIHPK-NH2; also: protecting groups)
Bone apposition rate, mean ([2]; 25 nmol): 1.686 μm/day
Bone apposition rate, mean ([2]; 50 nmol): 1.753 μm/day
Bone apposition rate, mean ([2]; 100 nmol): 1.907 μm/day
Bone apposition rate, mean ([2]; 200 nmol): 2.209 μm/day
Bone apposition rate, mean ([2]; 400 nmol): 2.123 μm/day
Bone apposition rate, mean ([2]; 800 nmol): 2.139 μm/day
Group arithmetic mean of bone apposition rate [3]: 2.406 μm/d
Bone stimulatory activity (in words) [3]: greater bone stimulatory activity; also recorded: bond stimulatory activity

NAP-2V-(13-26; gln^25→ glu^25) (IKTTSGIHPKNIES; OTHER INFORMATION: Description of Artificial Sequence: Chemically synthesized polypeptide) [SEQ ID NO: 12, Ile Lys Thr Thr Ser Gly Ile His Pro Lys Asn Ile Glu Ser]
Group arithmetic mean of bone apposition rate [1]: 1.70 μm per day
Effect on observed bone (mineral) apposition rate (in words) ([1]; about 25 nmol, rats; gln^25→glu^25)): stimulate bone growth; also recorded: greater activity; also recorded: increase the observed bone apposition rate

NAP-2V-(1-26) (DSDLYAELRCMCIKTTSGIHPKNIQS; OTHER INFORMATION: Description of Artificial Sequence: Chemically synthesized polypeptide) [SEQ ID NO: 11]
Group arithmetic mean of bone apposition rate [1]: 1.47 μm per day
Effect on observed bone (mineral) apposition rate (in words) ([1]; about 25 nmol, rats): stimulate bone growth; also recorded: increase the observed bone apposition rate

SEQ ID NO: 17: Protected NAP-2V-(13-26; gln^25→glu^25): Xaa Lys Thr Thr Ser Gly Ile His Pro Lys Asn Ile Glu Xaa; N-acetyl isoleucine, serinamide (Ac-IKTTSGIHPKNIES-NH2; also: protecting groups)
Group arithmetic mean of bone apposition rate [3]: 1.859 μm/d
Bone stimulatory activity (in words) [3]: bond stimulatory activity

B1: NAP-2V (peptide)
chain: DSDLYAELRCMCIKTTSGIHPKNIQSLEVIGKGTHCNQVEVIATLKDGRKICLDPDAPRIKKIVQKKLAGDESAD
modifications: OTHER INFORMATION: Description of Artificial Sequence: Chemically synthesized polypeptide
notes: variant of NAP-2, 75 amino acids, chemically synthesized polypeptide
Bone stimulatory effect (in words) [4]: bone stimulatory effects
Bone stimulatory effect (in words) ([4]; listed as SEQ ID NO:2): stimulate bone growth
Group arithmetic mean of bone apposition rate [4]: 1.28 μm/d

B2: Platelet factor 4 (protein)
chain: EAEEDGDLQCLCVKTTSQVRPRHITSLEVIKAQPHCPTAQLIATLKNGRKICLDLEAPLYKKIIKKLLES
modifications: OTHER INFORMATION: Description of Artificial Sequence: Chemically synthesized polypeptide
notes: seventy amino acid polypeptide
Effect on cell proliferation (in words) [5]: inhibit proliferation
Effect on cell proliferation (in words) [6]: inhibit proliferation

B3: NAP-2 (peptide)
chain: AELRCMCIKTTSGIHPKNIQSLEVIGKGTHCNQVEVIATLKDGRKICLDPDAPRIKKIVQKKLAGDESAD
modifications: OTHER INFORMATION: Description of Artificial Sequence: Chemically synthesized polypeptide
Bone stimulatory effect (in words) [4]: bone stimulatory effects
Bone stimulatory effect (in words) ([4]; listed as SEQ ID NO:1): stimulate bone growth
Group arithmetic mean of bone apposition rate [4]: 1.23 μm/d
